Reference: patent US7157079B2, “Combined tumor suppressor gene therapy and chemotherapy in the treatment of neoplasms” (priority 1997, dated 2007)

How the values were obtained:
MDA-MB-231 tumors = assay: Tumor growth with adenovirus in the absence or presence of low dose dexamethasone; settings: s.c. pellet releasing 83.3 μg dexamethasone/day
Description: To investigate whether the immunosuppressant properties of low dose Dexamethasone (Dex) can inhibit the anti-adenovirus immune response (e.g., NK cell response) MDA-MB-231 tumors in scid mice were treated with recombinant virus of the invention in the absence and in the presence of dexamethasone.
Approximately 5×10^6 MDA-MB-231 cells/mouse were injected into the mammary fat pads of female scid mice on day 0. On day 11, dexamethasone or placebo pellets were implanted subcutaneously. The 5 mg pellets were designed to release 83.3 μg dexamethasone/day continuously for 60 days (Innovative Research of America, Sarasota, Fla.). All mice received a total of 10 peritumoral injections given once a day on days 14–18 and 21–25 (0.1 ml per injection).

[1] = system: SK-OV-3 ovarian tumor cells; assay: MTT cell death assay, p53 adenovirus combined with anti-cancer drug; format: cell-based, human; settings: FIG. 1, TAXOL 0.001-20 μg/ml, p53 Ad 0.5-50 m.o.i., MTT on day 3
Description: In treatment three, the cells were contacted simultaneously with both the TAXOL® and the p53 adenovirus. Thus, the p53 Ad and TAXOL® can be administered within the same twenty four (24) hour period or concurrently.
Approximately 1.5×10^4 cells in culture medium (head and neck cell lines SCC-9, SCC-15, and SCC-25 in 1:1 mix of DMEM+ Ham's F12 media with 0;4 μg/ml cortisol and 10% FBS and 1% non-essential amino acids, prostate DU-145 and Ovarian SK-OV-3 in Eagles essential medium plus 10% FBS) were added to each well on a 96 well microtitre plate and cultured for about 4 hours at 37° C. and 5% CO2.
Cell death was then quantitated according to the method of Mosmann (1983) J. Immunol. Meth., 65: 55–63.
Dosing was performed as described above. Cell death was quantitated on day 3 using the MTT assay as described above. In addition, a dose response curve for p53 Ad alone (using the doses listed in Table 2) was generated (after […] cell exposure to the drug) and a dose response curve for TAXOL® alone was performed using the doses listed above (3 day cell exposure to the drug).
All cell lines were obtained from ATCC (Rockville, Md.). […]

[2] = system: MRC-9 diploid fibroblast cells; assay: 3H-thymidine incorporation growth assay in normal cells; format: cell-based; settings: MRC-9 vs tumor cells; FIG. 9
Description: In a second experiment, the efficacy of treatment of normal cells (MRC-9 cells) was compared with tumor cells (FIG. 9). In this experiment, growth was assayed as ^3H-thymidine incorporation rather than the MTT assay. […] As would be expected, the effect of tumor suppressor alone was negligible in normal cells and highly significant in tumor cells.

[3] = system: intraperitoneal SK-OV-3 tumors; assay: SK-OV-3 ovarian tumor model, cisplatin efficacy; format: in vivo, scid mice; settings: day 20
Description: There were normally ten mice per group.
Established intraperitoneal SK-OV-3 tumors were treated with intraperitoneal doses of vehicles, p53 Ad, cisplatin, or both drugs. Mice were given six injections of p53 Ad over a period of two weeks. The total virus dose was 1.5×10^9 C.I.U. (3.1×10^10 viral particles).
Cisplatin efficacy: Female scid mice were injected with 5×10^6 SK-OV-3 ovarian tumor cells, I.P., on day 0. Mice were dosed I.P. on days 6, 8, 10, 13, 15, and 17 (p53 Ad only on D17). Mice received 0.2 ml total volume (0.1 ml cisplatin vehicle or cisplatin plus 0.1 ml Ad buffer or p53 Ad). The p53 Ad dose was 2.5×10^8 C.I.U./mouse/day (5.2×10^9 viral particles). The cisplatin dose was 2 mg/kg/day. Tumors were harvested and weighed on day 20.

Row | Compound | effect of anti-cancer chemotherapeutic alone, normal vs cancer cells [2] | further results
1 | C[C@@H]1C[C@H]2[C@@H]3CCC4=CC(=O)C=C[C@]4(C)[C@@]3(F)[C@@H](O)C[C@]2(C)[C@@]1(O)C(=O)CO [dexamethasone] | – | adverse side effects (MDA-MB-231 tumors): No adverse side effects; effect on the growth rate of tumors (MDA-MB-231 tumors): no significant effect
2 | CC(=O)O[C@H]1C(=O)[C@@]2(C)[C@H]([C@H](OC(=O)c3ccccc3)[C@]3(O)C[C@H](OC(=O)[C@H](O)[C@@H](NC(=O)c4ccccc4)c4ccccc4)C(C)=C1C3(C)C)[C@]1(OC(C)=O)CO[C@@H]1C[C@@H]2O [TAXOL ®, paclitaxel] | – | inhibition of cell proliferation (as compared to the buffer control) [1]: decreased the rate of cell proliferation
3 | COc1cc([C@@H]2c3cc4c(cc3[C@@H](O[C@@H]3O[C@@H]5CO[C@@H](C)O[C@H]5[C@H](O)[C@H]3O)[C@H]3COC(=O)[C@H]23)OCO4)cc(OC)c1O [etoposide] | more effective in normal cells than cancer cells | –
4 | N.N.[Cl][Pt][Cl] [cisplatin] | more effective in normal cells than cancer cells | bloody ascites and invasive tumor nodules in the diaphragm muscle [3]: absent
5 | CN(Cc1cnc2nc(N)nc(N)c2n1)c1ccc(C(=O)N[C@@H](CCC(=O)O)C(=O)O)cc1 [methotrexate] | more effective in normal cells than cancer cells | –
6 | COc1cccc2c1C(=O)c1c(O)c3c(c(O)c1C2=O)C[C@@](O)(C(=O)CO)C[C@@H]3O[C@H]1C[C@H](N)[C@H](O)[C@H](C)O1 [doxorubicin] | more effective in normal cells than cancer cells | –
7 | O=c1[nH]cc(F)c(=O)[nH]1 [5-FU, 5-fluorouracil] | more effective in normal cells than cancer cells | –
